Source: patent publication US6380243B1, “Aminopyridine-containing thiourea inhibitors of herpes viruses” (American Home Products Corporation, priority 1998, dated 2002)
≈ marks a conversion by molar mass, not a printed value.

Columns and labels:
[1] = test system: HSV-1; experiment: HSV Antiviral (ELISA) Assay; assay type: cell-based, herpes simplex virus type 1; details: Human alphaherpesvirus 1, Vero cells, HSV-1, about 24 hours post-infection, read-out: IC50 (ug/ml) HSV
Protocol: Vero cells (ATCC #CCL-81) are plated on 96-well tissue culture plates at 3.5×10^4 cells per 100 μl tissue culture DMEM (Dulbecco's modified Eagle media) supplemented with 2% fetal bovine serum (FBS) in each well. After overnight incubation @37° C. (in 5% CO2) and 30 minutes prior to infection with HSV-1 (multiplicity of infection equal to 0.006), cells are either untreated, or treated with test compound (multiple concentrations) or reference standard drug control. After approximately 24 hours post-infection incubation @37° C. (in 5% CO2), cells are fixed for ELISA assay. The primary antibody is murine anti-HSV glycoprotein D monoclonal primary antibody and the secondary antibody is goat anti-mouse IgG linked to β-galactosidase. Thus the extent of viral replication is determined by assessing β-galactosidase activity by quantifying the generation of the 4-methyl umbelliferone fluorescent cleavage product after addition of the methyl umbelliferyl-β-D-galactoside (Sigma #M1633) substrate on a microfluorimeter (365 nm for excitation and 450 nm for emission). Antiviral activity (IC50) of the test compound is determined by comparing the flourescence obtained in absence of compound to that obtained in the presence of compound.

[2] = test system: HCMV wild-type; experiment: HCMV yield assay; assay type: cell-based, human cytomegalovirus; details: Human betaherpesvirus 5, Fibroblast; human foreskin fibroblasts; reduction of virus yield by 50%; read-out: IC50 (ug/ml) HCMV
Protocol: Yield assay. Monolayer cultures of human foreskin fibroblasts are infected with HCMV wild-type, typically at a multiplicity of infection equal to 0.2, in the presence of inhibitor compound (varying concentrations). At three days post-infection, total virus produced in these cultures (i.e. virus yield) is assessed by harvesting and titering the virus in 12-well plates of cultured human foreskin fibroblasts (done in the absence of inhibitor). Plaques are quantified at 2 weeks post-infection. An inhibitor of HCMV is identified by the reduction in titer of virus yield in the presence, compared to the titer in the absence of compound. In this assay, the relative anti-HCMV activity of an inhibitor is typically determined by calculating the IC50 or IC90 value, that is, the amount of compound required to reduce the virus yield by 50% or 90%, respectively. Table I describes IC50 data for compounds tested against HCMV.

[3] = test system: VZV strain Ellen; experiment: VZV Antiviral (ELISA) Assay; assay type: cell-based, varicella-zoster virus; details: Human alphaherpesvirus 3, 72 h; for IC50: human foreskin fibroblast cells, three days, read-out: IC50 (ug/ml) VZV; for inhibition at 10 µg/mL: read-out: % inhibition 10 ug/ml VZV, 10 ug/ml, human foreskin fibroblast cells, three days
Protocol: For the generation of stock VZV to be used in the assay, VZV strain Ellen (ATCC #VR-1367) is used to infect human foreskin fibroblast (HFF) cells at low multiplicity (less than 0.1) and incubated overnight at 37° C. in 5% CO2. After the overnight incubation, the mixture of uninfected and VZV-infected HFF infected cells are then harvested and added to each well of 96-well plates (3.5×10^4 cells in 100 1μl DMEM supplemented with 2% FBS) which contain test compound or the reference standard drug control (in 100 μl DMEM supplemented with 2% FBS per well). These cells are incubated for three days at 37° C. in 5% CO2, then fixed for ELISA assay. The primary antibody is murine anti-VZV glycoprotein II monoclonal antibody (Applied Biosystems, Inc. #13-145-100) and the secondary antibody is goat anti-mouse IgG linked to β-galactosidase. Thus the extent of viral replication is determined by assessing β-galactosidase activity by quantifying the generation of the 4-methyl umbelliferone fluorescent cleavage product after addition of the methyl umbelliferyl-β-D-galactoside (Sigma #M1633) substrate on a microfluorimeter (365 nm for excitation 450 nm for emission). Antiviral activity (IC50) of the test compound is determined by comparing the flourescence obtained in absence of compound to that obtained the presence of compound.

Row | IC50 [1] | SMILES | IC50 [2] | IC50 [3] | inhibition at 10 µg/mL [3]
1 | > 10 µg/mL | O=C(Nc1ccc(NC(=S)Nc2ccccn2)cc1)c1ccco1 [Example 426, Furan-2-carboxylic acid [4-(3-pyridin-2-yl-thioureido)-phenyl]-amide] | 1.6 µg/mL (≈ 4.73 µM) | 1.8 µg/mL (≈ 5.32 µM) | 2%
2 | > 10 µg/mL | O=C(Nc1ccc(NC(=S)Nc2ccncc2)cc1)c1ccco1 [Example 427, Furan-2-carboxylic acid [4-(3-pyridin-4-yl-thioureido)-phenyl]-amide] | 0.8 µg/mL (≈ 2.36 µM) | 1.2 µg/mL (≈ 3.55 µM) | 21%
3 | > 10 µg/mL | O=C(Nc1ccc(NC(=S)Nc2cccnc2)cc1)c1ccccc1F [Example 428, 2-Fluoro-N-[4-(3-pyridin-3-yl-thioureido)-phenyl]-benzamide] | > 10 µg/mL | > 10 µg/mL | 0%
4 | > 10 µg/mL | O=C(Nc1ccc(NC(=S)Nc2cccnc2)cc1)c1ccco1 [Example 429, Furan-2-carboxylic acid [4-(3-pyridin-3-yl-thioureido)-phenyl]-amide] | 1 µg/mL (≈ 2.96 µM) | > 10 µg/mL | 0%
5 | > 10 µg/mL | O=C(Nc1ccc(NC(=S)Nc2ccccn2)cc1)c1ccccc1F [Example 443, 2-Fluoro-N-[4-(3-pyridin-2-yl-thioureido)-phenyl]-benzamide] | > 10 µg/mL | > 10 µg/mL | 0%
6 | 8 µg/mL (≈ 21.8 µM) | O=C(Nc1ccc(NC(=S)Nc2ccncc2)cc1)c1ccccc1F [Example 444, 2-Fluoro-N-[4-(3-pyridin-4-yl-thioureido)-phenyl]-benzamide] | 4 µg/mL (≈ 10.9 µM) | > 10 µg/mL | 0%
7 | > 10 µg/mL | O=C(Nc1ccc(NC(=S)Nc2ccc(Cl)nc2)cc1)c1csnn1 [Example 471, [1,2,3]Thiadiazole-4-carboxylic acid {4-[3-(6-chloro-pyridin-3-yl)-thioureido]-phenyl}-amide] | 0.03 µg/mL (≈ 0.0767 µM) | > 10 µg/mL | 27%
8 | > 10 µg/mL | O=C(Nc1ccc(NC(=S)Nc2ccncn2)cc1)c1ccco1 [Example 480, Furan-2-carboxylic acid [4-(3-pyrimidin-4-yl-thioureido)-phenyl]-amide] | 7 µg/mL (≈ 20.6 µM) | > 10 µg/mL | 42%
9 | 1.2 µg/mL (≈ 2.96 µM) | O=C(Nc1ccc(NC(=S)Nc2ccc3[nH]ncc3c2)cc1)c1ccccc1F [Example 483, 2-Fluoro-N-{4-[3-(1H-indazol-5-yl)-thioureido]-phenyl}-benzamide] | 5 µg/mL (≈ 12.3 µM) | > 10 µg/mL | 45%
10 | 2.5 µg/mL (≈ 5.74 µM) | O=C(Nc1ccc(NC(=S)Nc2cncc(Br)c2)cc1)c1csnn1 [Example 525, [1,2,3]Thiadiazole-4-carboxylic acid {4-[3-(5-bromo-pyridin-3-yl)-thioureido]-phenyl}-amide] | 0.018 µg/mL (≈ 0.0413 µM) | > 10 µg/mL | 39%
11 | 10 µg/mL (≈ 24.3 µM) | CC(C)(C)n1ccnc1NC(=S)Nc1ccc(NC(=O)c2ccccc2F)cc1 [Example 593, N-{4-[3-(1-tert-Butyl-1H-imidazol-2-yl)-thioureido]-phenyl}-2-fluoro-benzamide] | > 0.5 µg/mL | > 10 µg/mL | –
12 | 9 µg/mL (≈ 22.4 µM) | CC(C)(C)n1ccnc1NC(=S)Nc1ccc(NC(=O)c2csnn2)cc1 [Example 608, [1,2,3]Thiadiazole-4-carboxylic acid {4-[3-(1-tert-butyl-1H-imidazol-2-yl)-thioureido]-phenyl}-amide] | > 0.5 µg/mL | > 10 µg/mL | –
13 | 8 µg/mL (≈ 20.9 µM) | CC(C)(C)n1ccnc1NC(=S)Nc1ccc(NC(=O)c2ccco2)cc1 [Example 609, Furan-2-carboxylic acid {4-[3-(1-tert-butyl-1H-imidazol-2-yl)-thioureido]-phenyl}-amide] | 1.5 µg/mL (≈ 3.91 µM) | > 10 µg/mL | –
14 | > 10 µg/mL | O=C(Nc1ccc(NC(=S)Nc2cncc(C(F)(F)F)c2)cc1)c1csnn1 [Example 629, [1,2,3]Thiadiazole-4-carboxylic acid {4-[3-(5-trifluoromethyl-pyridin-3-yl)-thioureido]-phenyl}-amide] | 0.5 µg/mL (≈ 1.18 µM) | > 10 µg/mL | –
15 | > 10 µg/mL | O=C(Nc1ccc(NC(=S)NCc2cccnc2)cc1)c1ccccc1F [Example 632, 2-Fluoro-N-[4-(3-pyridin-3-ylmethyl-thioureido)-phenyl]-benzamide] | > 10 µg/mL | > 10 µg/mL | –
16 | > 10 µg/mL | O=C(Nc1ccc(NC(=S)NCc2cccnc2)cc1)c1ccco1 [Example 633, Furan-2-carboxylic acid [4-(3-pyridin-3-ylmethyl-thioureido)-phenyl]-amide] | 0.34 µg/mL (≈ 0.965 µM) | > 10 µg/mL | –
17 | > 10 µg/mL | O=C(Nc1ccc(NC(=S)NCc2cccnc2)cc1)c1csnn1 [Example 634, [1,2,3]Thiadiazole-4-carboxylic acid [4-(3-pyridin-3-ylmethyl-thioureido)-phenyl]-amide] | 0.12 µg/mL (≈ 0.324 µM) | > 10 µg/mL | –
18 | > 10 µg/mL | O=C(Nc1ccc(NC(=S)NC2CCc3ccccc32)cc1)c1csnn1 (stereo not shown) [Example 649, [1,2,3]Thiadiazole-4-carboxylic acid [4-(3-indan-1-yl-thioureido)-phenyl]-amide] | 0.02 µg/mL (≈ 0.0506 µM) | 0.5 µg/mL (≈ 1.26 µM) | –
19 | 10 µg/mL (≈ 26.3 µM) | O=C(Nc1ccc(NC(=S)NCc2ccncc2)cc1)c1ccccc1F [Example 658, 2-Fluoro-N-[4-(3-pyridin-4-ylmethyl-thioureido)-phenyl]-benzamide] | > 0.5 µg/mL | – | –
20 | > 10 µg/mL | O=C(Nc1ccc(NC(=S)NCc2ccncc2)cc1)c1ccco1 [Example 659, Furan-2-carboxylic acid [4-(3-pyridin-4-ylmethyl-thioureido)-phenyl]-amide] | > 0.5 µg/mL | – | –
21 | 10 µg/mL (≈ 27 µM) | O=C(Nc1ccc(NC(=S)NCc2ccncc2)cc1)c1csnn1 [Example 660, [1,2,3]Thiadiazole-4-carboxylic acid [4-(3-pyridin-4-ylmethyl-thioureido)-phenyl]-amide] | > 0.5 µg/mL | – | –
22 | > 10 µg/mL | CC(NC(=S)Nc1ccc(NC(=O)c2ccccc2F)cc1)c1ccco1 (stereo not shown) [Example 802, 2-Fluoro-N-{4-[3-(1-furan-2-yl-ethyl)-thioureido]-phenyl}-benzamide] | > 10 µg/mL | 7.3 µg/mL (≈ 19 µM) | –
23 | > 10 µg/mL | CC(NC(=S)Nc1ccc(NC(=O)c2ccccc2F)cc1)c1ccncc1 (stereo not shown) [Example 803, 2-Fluoro-N-{4-[3-(1-pyridin-4-yl-ethyl)-thioureido]-phenyl}-benzamide] | > 10 µg/mL | > 7.5 µg/mL | –
24 | > 10 µg/mL | CC(NC(=S)Nc1ccc(NC(=O)c2ccccc2F)cc1)c1cccn1C (stereo not shown) [Example 804, 2-Fluoro-N-(4-{3-[1-(1-methyl-1H-pyrrol-2-yl)-ethyl]-thioureido}-phenyl)-benzamide] | > 10 µg/mL | 5.7 µg/mL (≈ 14.4 µM) | –
25 | > 10 µg/mL | CC(NC(=S)Nc1ccc(NC(=O)c2ccccc2F)cc1)c1ccsc1 (stereo not shown) [Example 805, 2-Fluoro-N-{4-[3-(1-thiophen-3-yl-ethyl)-thioureido]-phenyl}-benzamide] | 8 µg/mL (≈ 20 µM) | 1.6 µg/mL (≈ 4 µM) | –
26 | > 10 µg/mL | CC(NC(=S)Nc1ccc(NC(=O)c2ccccc2F)cc1)c1nccs1 (stereo not shown) [Example 1093, 2-Fluoro-N-{4-[3-(1-thiazol-2-yl-ethyl)-thioureido]-phenyl}-benzamide] | > 10 µg/mL | > 10 µg/mL | –
